# Source: patent publication US12660812B2, “Cryoprotecting agent, cryoprotecting and cryopreserved compositions, uses thereof, and methods of cryopreservation” (PHARMACOSMOS HOLDING A/S, priority 2012, dated 2026)
# System: adipose-derived stromal/stem cells (ASC's)
# Test: Viability of adipose-derived stromal/stem cells after cryopreservation, flow cytometry with 7-AAD
# Assay type: cell-based
# Settings: 10% DMSO
# Text: ASC's were harvested from adipose tissue obtained by cosmetic liposuction of the abdomen or the inner thighs using the Vibrasat device (Möller Medical GmbH & Co. KG, Fulda, Germany). The ASC's from the stromal vascular fraction were expanded ex vivo in culture medium consisting of Dulbecco's modified Eagle's medium, 1% penicillin-streptomycin, 1% GlutaMAX, and 10% pooled human platelet lysate. Cells were frozen in cryoprotective medium containing 10% DMSO or different concentrations of isomaltooligosaccharide 1 (isom) or hydrogenated isomaltooligosaccharide 1 (h-isom). Samples were frozen using a controlled rate freezer (Kryo 560-16, Planer; start temp. 4° C., −1° C./min drop to 0° C., −2° C./min drop to −45° C. and −5° C./min drop to −100° C.) and moved to −150° C. Samples were thawed in a 37° C. water bath. Flow cytometry was applied for phenotype characterization (positive for CD73, CD90, CD105 and negative for CD14, CD20, CD45 and CD34) and to estimate the viability of ASC's. The fluorescent DNA binding compound 7-Aminoactinomycin D (7-AAD) was used as a live/dead marker. Cells able to exclude 7AAD were assumed to be viable. The results are shown in FIG. 11: Isomaltooligosaccharide 1 (light grey bars), hydrogenated isomaltooligosaccharide 1 (dark grey bars) and DMSO (black bars). Data shown here are from a single experiment measured in doublets. […]
compound,measurement,value
"C[S+](C)[O-] [DMSO, dimethyl sulfoxide]","Viability of ASCs, result against expectation",lower than expected
